Results: patent US12329799B2, “Peptidyl inhibitors of calcineurin-NFAT interaction” (Ohio State Innovation Foundation, priority 2018, dated 2025)
Positions of bridges follow the written chain, without caps; N, C: chain ends. Non-standard residues stand in square brackets, D forms with d. Residues, ends and D or L forms follow the SMILES beside them. Chains are numbered I, II in the order given. *: point of attachment. Benzoyl(2,3-Cl2) = O=C(c1cccc(Cl)c1Cl)*; 2Nal = N[C@@H](Cc1ccc2ccccc2c1)C(=O)O; Tle = CC(C)(C)[C@H](N)C(=O)O; βAla = NCCC(=O)O

Assays:
[1] = test system: NFAT-mediated luciferase expression in Jurkat cells; test: NFAT luciferase assay in Jurkat cells; type: cell-based; conditions: 10 μM, Jurkat cells
Description: In a separate experiment, CNI93 was also tested against Jurkat cells expressing a luciferase gene under the transcriptional control of NFAT.
NFAT Luciferase Assay. Jurkat-Lucia cells maintained in RPMI-1640 supplemented with 10% FBS, 1% penicillin/streptomycin (v/v/v) and 100 μg/mL normocin were harvested after a passage with 50 μg/mL selective antibiotic Zeocin at 300×RCF for 5 min. Cells were resuspended in warm RPMI-1640 with antibiotics but without FBS to a final density of 2×10^6 cells/mL and seeded into white-on-white cell-culture treated 96-well plates. To each well was added 10 μL of DPBS containing compounds which dilute to the desired concentrations followed by 170 μL of cell suspension […] and incubated at 37° C. for 2 h. The cells were induced by treatment with 50 ng/mL PMA and 3 μg/mL ionomycin, Ca^2+ salt in FBS to achieve a final FBS concentration of 10% in each well (with FBS only as control). The plate was incubated for an additional 4 h at 37° C., when 20 μL of each sample was withdrawn and mixed with 50 μL of Quanti-Luc assay solution. The luminescence of the mixture was immediately measured on a Tecan Infinite M1000 plate reader.

H441 (lung cancer) cells = test: MTT assay, H441; type: cell-based; conditions: 72 h
Description: (§1) MTT Proliferation Assay. HeLa, Jurkat-Lucia, or H441 cells were seeded into a 96-well microplate (5000 cells per well) in full growth media and incubated at 37° C. overnight. A serial dilution of each compound was prepared in DPBS and then added to each well. The treated cells were incubated at 37° C. with 5% CO2 for 72 h. Following compound treatment, 10 μL of MTT stock solution was added to each well. After an additional 4 h at 37° C., 100 μL of SDS-HCl solubilizing solution was added to each well and the plate was returned to the incubator overnight at 37° C. A Tecan Infinite M1000 Pro microplate reader was used the following morning to measure the absorbance of the formazan product at 565 nm.

[2] = test system: LPS-induced TNFα production in lung macrophages; test: LPS-induced TNFα secretion by lung macrophages (ELISA); type: cell-based, mouse
From the text: Cell supernatants were collected and analyzed for TNFα levels by R&D systems TNFα ELISA kit.

[3] = test system: NFATc3 nuclear translocation; test: LPS-induced NFATc3 nuclear translocation in macrophages (immunofluorescence); type: cell-based, mouse; conditions: 1 μM peptide pretreatment, LPS stimulation
Description: Endotoxin lipopolysaccharide (LPS) was previously shown to induce NFATc3 translocation from the cytoplasm into the nucleus and upregulation of NFATc3 target genes in macrophages.
Immunofluorescence. Mouse BMDM were pretreated with 1 μM of control CPP9 (SEQ ID NO: 76)-VAVAA (SEQ ID NO: 224)-Biotin or CNI93-Biotin peptides for 5 min and stimulated with PBS or LPS (100 ng/mL) for 1 h. Treated cells were washed, fixed in 4% paraformaldehyde and incubated sequentially with anti-rabbit NFATc3, Anti-rabbit Alexa Fluor™ 488 Conjugate and Alexa Fluor™ 594 Streptavidin. Cells were washed three times in 1×PBS after incubation with each antibody.

[4] = Maximum tolerated dose (body weight over 10 days); type: in vivo
[5] = test system: LPS-induced acute lung injury (ALI) in mice; test: LPS sepsis-induced acute lung injury, intranasal CNI93; type: in vivo, mouse; conditions: i.n. 10 mg/kg
Description: As expected, LPS challenge of CPP9-VAVAA (SEQ ID NO: 224) treated mice increased the total protein in BALF by ˜2-fold and TNFα and IL-6 levels in BALF (FIGS. 11A, 11B, and 11D, respectively).
Mouse models of LPS sepsis. Mouse LPS sepsis-induced acute lung injury models were established by intraperitoneal injection of LPS at 10 mg/kg body weight. Acute lung injury was assessed by measuring secretion of TNFα, IL6 in to broncho alveolar lavage fluid (BALF), plasma levels of IL6 and TNFα, and neutrophilic infiltration. Pulmonary edema was measured by increased protein levels in BALF. Neutrophilic infiltration in to bronchoalveolar lavage fluid is determined by Hema 3.0 staining and number of neutrophils in BALF is quantitated.
Neutrophilic inflammation. BALF fluid from different treatment groups of mice was used to prepare Cytospin slides, stained using Hema 3 and number of neutrophils and macrophages per field view of microscopic view were counted and differences among groups calculated.

HeLa cells = test: MTT assay, HeLa; type: cell-based; conditions: 72 h
Description: as §1
Potential cytotoxicity of CNI101 (SEQ ID NO: 206) and CNI103 (SEQ ID NO: 208) was tested on HeLa cells by the MTT proliferation assay. HeLa cells were seeded into a 96-well microplate (5000 cells per well) in full growth media and incubated at 37° C. overnight. A serial dilution of each inhibitor was prepared in DPBS and then added to each well. The treated cells were incubated at 37° C. with 5% CO2 for 72 h. Following compound treatment, 10 μL of MTT stock solution was added to each well. After an additional 4 h at 37° C., 100 μL of SDS-HCl solubilizing solution was added to each well and the plate was returned to the incubator overnight at 37° C. A Tecan Infinite M1000 Pro microplate reader was used the following morning to measure the absorbance of the formazan product at 565 nm.

For CC[C@H](C)[C@H](NC(=O)[C@@H](NC(=O)c1cccc(Cl)c1Cl)C(C)(C)C)C(=O)N[C@H](C(=O)N[C@H](C(=O)N[C@H](C(=O)N[C@@H](CCC(N)=O)C(=O)N[C@@H](Cc1c[nH]cn1)C(=O)N[C@H](CC(C)C)C(=O)N[C@@H](CO)C(=O)NCCC(=O)N[C@@H](CCCCNC(=O)CC[C@@H]1NC(=O)[C@@H](CCCNC(=N)N)NC(=O)[C@H](CCCNC(=N)N)NC(=O)[C@@H](CCCNC(=N)N)NC(=O)[C@H](CCCNC(=N)N)NC(=O)[C@H](Cc2ccc3ccccc3c2)NC(=O)[C@@H](Cc2ccccc2)NC1=O)C(N)=O)[C@@H](C)O)[C@@H](C)CC)C(C)(C)C [CNI93] (I: {Benzoyl(2,3-Cl2)}-[Tle]I[Tle]ITQH[dL]S[βAla]K-NH2 / II: cyclo([2Nal]R[dR]R[dR]E[dF]); amide I:11-II:6 (inferred); ring closure inferred), the “phorbol ester- and ionomycin-induced expression of luciferase” value [1] was “potently inhibited”, the cytotoxicity (H441 (lung cancer) cells; H441, 25 μM) was “No significant cytotoxicity” and the cell viability (H441 (lung cancer) cells; H441, 50 μM) was “Reduction in cell viability”. The “decrease of LPS-induced TNFα production” value ([2]; dose-dependent, 100 nM-10 μM, LPS 100 ng/mL, 16 h) was 24-59%, the “potency as immunosuppressant relative to CsA” value ([2]; ex vivo assay) was roughly 10 fold and the “LPS-induced nuclear translocation of NFATc3” value [3] was “completely blocked”. For the same compound, the body weight ([4]; intranasal 10 mg/kg) was “steady increase in body weight similar to healthy controls”, the “survival and signs of distress” value ([4]; intranasal 10 mg/kg) was “survived and showed no visible sign of distress” and the body weight ([4]; intranasal 50 mg/kg) was “steady increase in body weight similar to healthy controls”. The “survival and signs of distress” value ([4]; intranasal 50 mg/kg) was “survived and showed no visible sign of distress”, the “neutrophilic infiltration into the lungs” value ([5]; 1 h before LPS i.p. 10 mg/kg) was “prevented” and the “protection from LPS-induced production of cytokines and protein leakage into BALF” value ([5]; 1 h before LPS i.p. 10 mg/kg) was “almost completely protected”. For the same compound, the “decrease of plasma level of IL6” value ([5]; LPS sepsis mice) was roughly 4 fold, the “decrease of plasma level of TNFα” value ([5]; LPS sepsis mice) was roughly 4 fold and the cytotoxicity (HeLa cells; 25 μM) was “No significant cytotoxicity”. The cell viability (HeLa cells; 50 μM) was “Reduction in cell viability”.
